# Results from US20130309379A1, “Anti-Fungal Composition” (DSM IP ASSETS B.V., priority 2005, published 2013).
# What was measured:
# [1] = test system: Saccharomyces cerevisiae ATCC 9763; conditions: carrier on agar surface of 0.6 cm diameter, carrier loading 40 μg; disclosed in U.S. Pat. No. 5,821,233; cited from earlier work
# [2] = test system: Saccharomyces cerevisiae ATCC 9763; experiment: Microbiological method for determining natamycin release rate from a loaded filter paper disc into seeded agar (inhibition zone); format: physicochemical
# Text: The test used to measure the natamycin release rate has been described in example 1 of this application. Briefly, the sample comprising natamycin is applied to a carrier. The carrier can be any material that provides unlimited water transport. Preferably, the carrier is a filter paper disc, more preferably the filter paper disc used in example 1. Subsequently, the carrier loaded with the natamycin composition is applied to the surface of an agar plate seeded with yeast or fungal cells (in example 1 Saccharomyces cerevisiae cells were used). The agar plate and the carrier are subsequently incubated at a temperature such that the natamycin is released into the agar. (in example 1, the temperature chosen is 6° C.) during 24 hours. After having removed the carrier from the agar plate, the agar plate is incubated under growth permitting conditions for said cells (in example 1, the temperature is 30° C.) during a chosen period. In this case, the period is 24 hours or 48 hours depending on the type of release rate desired to be determined. Finally, inhibition of cell growth in the agar due to the presence of the natamycin, which has been released from the carrier into the agar, is determined. The size of the inhibition zone is a measure of the natamycin released from the sample. […] The discs were then put on agar, which was seeded with the Saccharomyces cerevisiae ATCC 9763. The petri dishes containing the agar were then stored for 24 hours at 6° C. to permit the natamycin to release into the agar. […] As a reference, discs were freshly loaded with a range of known amounts of natamycin dissolved in aqueous methanol. The next day, the sample discs were transferred to new petri dishes containing agar seeded with Saccharomyces cerevisiae. New discs freshly loaded with a range of known quantities of dissolved natamycin were prepared for use as a reference. The new dishes with the sample discs and the new reference were stored at 6° C. for 24 hours and the old dishes containing the released natamycin incubated at 30° C. for 24 hours. The size of the inhibition zone is a measure of the natamycin released from the sample disc. The amount of released natamycin can be calculated by methods know per se. By repeating the procedure, the released natamycin can be measured on a daily basis. Other release time periods may alternatively be chosen. Using the method described in example 1, the release rate profile of the new slow release natamycin was compared to the release rate profile of known commercial natamycin DELVOCID® (DSM, The Netherlands). Suspensions of the natamycin preparations were prepared in such a manner that each suspension contained 800 ppm natamycin as such. 50 μl of each of the respective mixtures was applied on a paper filter disc and the release rate was analysed using the method of example 1.
# [3] = Chemical stability (natamycin degradation) in beverages stored at 4° C.; format: physicochemical; conditions: for Total degradation: 4° C., 150 to 170 ppm natamycin
# Experimental: The release rate of the new slow release natamycin was compared with that of known commercial natamycin DELVOCID® Instant (DSM, The Netherlands) by measuring their chemical stability in various beverages. The natamycin preparations were suspended in beverages to a final concentration of 150 to 170 ppm natamycin. The natamycin containing beverages were stored at 4° C. and the natamycin concentration in the beverage was measured in time.
# [4] = Initial release rate, 40 μg carrier loading, 0.6 cm disc, 6° C.
smiles,measurement,setting,value
C[C@@H]1C/C=C/C=C/C=C/C=C/[C@H](O[C@@H]2O[C@H](C)[C@@H](O)[C@H](N)[C@@H]2O)C[C@@H]2O[C@](O)(C[C@@H](O)C[C@H]3O[C@@H]3/C=C/C(=O)O1)C[C@H](O)[C@H]2C(=O)O [natamycin],Release rate over the first 24 hours,[1],at least 3 μg/24 hours
"C[C@@H]1C/C=C/C=C/C=C/C=C/[C@H](O[C@@H]2O[C@H](C)[C@@H](O)[C@H](N)[C@@H]2O)C[C@@H]2O[C@](O)(C[C@@H](O)C[C@H]3O[C@@H]3/C=C/C(=O)O1)C[C@H](O)[C@H]2C(=O)O [Low release natamycin, natamycin]",Release rate after 11 days,[2]; 5 μg carrier loading,0.35 μg/24 hours
same,% decrease in release rate after 9 days,[2]; 10 μg carrier loading,35%
same,Release rate after 11 days,[2]; 10 μg carrier loading,0.6 μg/24 hours
same,% decrease in release rate after 9 days,[2]; 40 μg carrier loading,45%
same,Release rate after 11 days,[2]; 40 μg carrier loading,1.2 μg/24 hours
same,Release rate after 24 hours,[2]; [4],<2 μg/24 hours
same,Release rate after 48 hours,[2]; [4],<1.8 μg/24 hours
same,Release rate compared with DELVOCID,[2]; comparison in words,lower release rate
same,Total degradation,"[3]; Ice tea pH 3.2, 1 week",3.4 ppm
same,Total degradation,"[3]; Ice tea pH 3.2, 2 weeks",5.4 ppm
same,Total degradation,"[3]; Ice tea pH 3.2, 3 weeks",3.2 ppm
same,Total degradation,"[3]; Ice tea pH 3.2, 4 weeks",15.0 ppm
same,Total degradation,"[3]; Ice tea pH 3.2, 5 weeks",17.4 ppm
same,Difference in total degradation (DELVOCID Instant minus slow release natamycin),"[3]; Ice tea, 1 week",11.5 ppm
same,Difference in total degradation (DELVOCID Instant minus slow release natamycin),"[3]; Ice tea, 2 weeks",11.1 ppm
same,Difference in total degradation (DELVOCID Instant minus slow release natamycin),"[3]; Ice tea, 3 weeks",12.1 ppm
same,Difference in total degradation (DELVOCID Instant minus slow release natamycin),"[3]; Ice tea, 4 weeks",13.2 ppm
same,Difference in total degradation (DELVOCID Instant minus slow release natamycin),"[3]; Ice tea, 5 weeks",14.3 ppm
same,Total degradation,"[3]; Tomato juice pH 4.2, 1 week",5.1 ppm
same,Total degradation,"[3]; Tomato juice pH 4.2, 2 weeks",13.1 ppm
same,Total degradation,"[3]; Tomato juice pH 4.2, 3 weeks",20.1 ppm
same,Total degradation,"[3]; Tomato juice pH 4.2, 4 weeks",23.2 ppm
same,Total degradation,"[3]; Tomato juice pH 4.2, 5 weeks",28.9 ppm
same,Difference in total degradation (DELVOCID Instant minus slow release natamycin),"[3]; Tomato juice, 1 week",3.5 ppm
same,Difference in total degradation (DELVOCID Instant minus slow release natamycin),"[3]; Tomato juice, 2 weeks",0.6 ppm
same,Difference in total degradation (DELVOCID Instant minus slow release natamycin),"[3]; Tomato juice, 3 weeks",6.4 ppm
same,Difference in total degradation (DELVOCID Instant minus slow release natamycin),"[3]; Tomato juice, 4 weeks",4.7 ppm
same,Difference in total degradation (DELVOCID Instant minus slow release natamycin),"[3]; Tomato juice, 5 weeks",3.7 ppm
same,Release rate compared with DELVOCID Instant in beverages,"[3]; tomato juice and ice tea, inferred from degradation, in words",lower
